Data as given in patent publication EP0125439A2, “3,6-Disubstituted-1,8-naphthalimides and methods for their production and use” (WARNER-LAMBERT COMPANY, priority 1983, dated 1984).
Structures can show the parent of a compound that is named as a salt. Where two headings read alike, the source gives them in different places.

Columns and labels:
[1] = tested on: lymphocytic leukemia P388; experiment: in vivo lymphocytic leukemia P388 test; parameters: species or system CD2Fl mice; details: survival time treated/control
Procedure: Another test protocol is the in vivo lymphocytic leukemia P388 test. The animals used are either male or female CD2Fl mice, six or seven animals per test group. The tumor transplant is by intraperitoneal injection of dilute ascitic fluid containing cells of lymphocytic leukemia P388. The test compounds are administered intraperitoneally once daily for five consecutive days at various doses following tumor inoculation. The animals are weighed and survivors are recorded on a regular basis for 30 days. A compound is designated "toxic" if, at a given dose, all animals died prior to four days after the first injection of drug. A ratio of survival time for treated (T)/control (C) animals is calculated. A criterion for efficacy is a ratio T/C times 100 greater than or equal to 125. See Cancer Chemotherapy Reports, Part 3, 3, 1 (1972) for a comprehensive discussion of the protocol.

mouse tumor line L1210 = experiment: growth inhibition of L1210 in suspension cell culture; assay type: cell-based; details: read-out: L1210 Leukemia In Vitro ID50
Procedure: In another test protocol, growth-inhibitory effects are measured against the mouse tumor line L1210 in suspension cell culture. Cell cultures were initiated at a density of 50,000 cells/ml in medium RPMI 1630 supplemented with 10 percent fetal calf serum. Composition of this culture medium and details of the culture procedure follow the published method (Journal of the National Cancer Institute 36, 405-415, 1966). Cultures are maintained at 37 degrees in stationary suspension culture under a 95 percent air + 5 percent C02 atmosphere. Test compounds are added to treated cultures at the time of initiation, and are present continually. After 72 hours, 40-fold dilutions of drug- treated and untreated control cultures are prepared in 0.9 percent NaCl solution, and cells are counted on an electronic particle counter. The growth-inhibitory effects are expressed as IDSO values, namely, test compound inhibitory dosages or concentrations required to decrease cell count in treated cultures to 50 percent of the cell count of untreated control cultures.

B16 melanoma = experiment: solid tumor B16 melanoma in mice; assay type: in vivo; details: survival time treated/control
Procedure: Another test protocol utilizes the solid tumor B16 melanoma in mice. The tumor is inoculated by intraperitoneal injection. The test compounds are administered intraperitoneally once daily for nine consecutive days at various doses following tumor inoculation. A ratio of survival time for treated (T)/control (C) animals is calculated. A criterion for efficacy is a ratio T/C times 100 greater than or equal to 125. See Cancer Therapy Reviews, 7, 167 (1980) and references cited therein for further details and interpretation of the test.

HCT-8 cells = experiment: in vitro proliferating human colon adenocarcinoma (HCA) cell screen; assay type: cell-based; details: 60 - 65 hours with compound, nuclei count, 50% inhibition of growth, read-out: ID50 (the source's name)
Procedure: One test protocol is the in vitro proliferating human colon adenocarcinoma (HCA) cell screen. In this test, HCT-8 cells (HCA cell line received from Yale University) are trypsinized using trypsin-EDTA. A single cell suspension is achieved by passing the cells through a 26 gauge needle with a 20 cc syringe. A cell suspension is prepared using RPMI 1640 + 10% FCS + 50 ug/ml gentamicin sulfate with a cell concentration of approximately 30t000 cells/ml. The cell suspension is dispensed in Linbro 24-well plates; 1 ml/well. The plates are incubated for approximately 48 hours at 37 degrees C. in a 5% C02 atmosphere. At this time test compounds are added in the appropriate concentration. Five ul of the 200 ug/ml stock solution is added to each well in a primary test. Ten ul of the appropriate dilution is added to each well for a titration test. The plates are reincubated an additional 60 - 65 hours at 37 degrees C. in a 5% C02 atmosphere. The cells are lysed using a mix of cationic surfactant, glacial acetic acid and sodium chloride. Two ml of the lysed cell suspension from each well is added to 8 ml of diluent. The number of nuclei is determined using a Coulter counter (ZBI model), and a percent growth for each drug concentration is calculated. From this, an ID50 (molar concentration of compound that results in 50% inhibition of growth) is determined.

[2] = tested on: Streptococcus faecalis 05045; experiment: in vitro antibacterial/antifungal (ABF) agar-disk diffusion assay; assay type: cell-based; details: Enterococcus faecalis, Dose 500 mg/ml, AM-09 medium, read-out: Inhibition Zone Diameter S. Faecalis
Procedure: (§1) Another test protocol is the in vitro anti- bacterial/antifungal (ABF) test. Compounds are tested for antimicrobial activity in an agar-disk diffusion assay, a standard microbiological technique for testing antibiotics. After incubation of each culture with a test compound, a zone of inhibition is determined. The zone diameter (mm) of active compounds ranges from a minimum of 13.5 mm to as high as 60 mm, with a greater diameter reflecting higher activity. For convenience, values are reported for the gram-negative bacterial species (Escherichia coli 04863), two gram positive bacteria (Bacillus subtilis 04555 and Streptococcus faecalis 05045 utilizing AM-09 medium), and one mycelial fungus (Penicillium avellaneum M2988).

[3] = tested on: Penicillium avellaneum M2988; experiment: as above; assay type: cell-based; details: Hamigera avellanea, read-out: Inhibition Zone Diameter P. avellaneum; for zone of inhibition at 500000 µg/mL: Dose 500 mg/ml
Procedure: as §1

Bacillus subtilis 04555 = experiment: as above; assay type: cell-based; details: Dose 100 mg/ml, read-out: Inhibition Zone Diameter B. Subtilis
Procedure: as §1

Escherichia coli 04863 = experiment: as above; assay type: cell-based; details: Dose 500 mg/ml, read-out: Inhibition Zone Diameter E. Coli
Procedure: as §1

Row | Structure (SMILES) | P388 Leukemia In Mice T/C X100 ([1]; Dose 3.12 mg/kg intraperitoneally once daily for five days) | IC50 (mouse tumor line L1210; L1210, 72 hours, cell count 50 percent of untreated control) | B16 Melanoma T/C X100 (B16 melanoma; Dose 1.00 mg/kg intraperitoneally once daily for nine days) | IC50 (HCT-8 cells) | zone of inhibition at 500000 µg/mL [2] | zone of inhibition at 500000 µg/mL [3] | zone of inhibition at 100000 µg/mL (Bacillus subtilis 04555) | zone of inhibition at 500000 µg/mL (Escherichia coli 04863) | IC50 (mouse tumor line L1210; L1210, 72 h) | B16 Melanoma T/C X100 (B16 melanoma; Dose 12.5 mg/kg intraperitoneally once daily for nine days) | P388 Leukemia In Mice T/C X100 ([1]; Dose 1.56 mg/kg intraperitoneally once daily for five days) | zone of inhibition at 3 g/mL ([3]; Dose 3000 mg/ml)
1 | CN(C)CCN1C(=O)c2cc([N+](=O)[O-])cc3cc([N+](=O)[O-])cc(c23)C1=O [CH2CH2NMe2, N-[2-(Dimethylamino)ethyl]-3,6,-dinitro-1,8-naphtalamide, Hydrochloride] | 167% | 36 nM | 125% |  |  |  |  |  |  |  |  | 
2 | O=C1c2cc([N+](=O)[O-])cc3cc([N+](=O)[O-])cc(c23)C(=O)N1CCN1CCCCC1 [CH2CH2N(CH2)5, 3,6-Dinitro-N-[2-(piperidinyl)ethyl]-1,8-naphthalimide, Hydrochloride] |  |  |  | 480 nM | 19 mm | 26 mm | 24 mm | 16 mm | 290 nM | 135% |  | 
3 | CCN(CC)CCN1C(=O)c2cc([N+](=O)[O-])cc3cc([N+](=O)[O-])cc(c23)C1=O [CH2CH2NEt2, N-[2-(Diethylamino)ethyl]-3,6-dinitro-1.8-naphthalimide Hydrochloride] |  |  |  | 960 nM |  |  |  |  | 350 nM |  | 155% | 
4 | O=C1c2cc([N+](=O)[O-])cc3cc([N+](=O)[O-])cc(c23)C(=O)N1CCN1CCOCC1 [3,6-Dinitro-N-[2-(morpholino)ethyl]-1,8-naphthalimide] |  |  |  | 860 nM | 14 mm |  | 22 mm |  | 1100 nM |  |  | 15 mm
5 | O=C1c2cc([N+](=O)[O-])cc3cc([N+](=O)[O-])cc(c23)C(=O)N1CCN1CCCC1 [CH2CH2N(CH2)4, 3,6-Dinitro-N[2-(pyrrolidinyl)ethyl]-1,8-naphthalimide Hydrocholoride] |  |  |  | 180 nM | 18 mm | 22 mm | 16 mm | 17 mm | 83 nM |  |  | 
